Results taken from patent US20260124132A1, “COMPOSITION AND METHOD FOR INHIBITING COLLAGENASE ACTIVITY” (ACCESS BUSINESS GROUP INTERNATIONAL LLC, priority 2022, published 2026).
Values joined by “and” are separate entries in the source; they are usually repeats but may differ in a detail not shown here. Equal values may be shown once.

Tested on: collagenase derived from Clostridium histolyticum
Assay: Inhibition of collagenase (fluorescence assay with fluorogenic peptide substrate)
Assay type: biochemical
Settings: for Average % inhibition: average of replicates; for Inhibition Rate of collagenase (%): individual replicate
Procedure: The collagenase inhibitory activity of aqueous and ethanol extracts of Cornus officinalis Sieb. et Zucc., Potentilla glabra Lodd. var. mandshurica (Maxim.) Hand.-Mazz, Amomum kravanh Pierre ex Gagnep, and Bombax ceiba Linnaeus were evaluated. The sample mixture (10 μL), 10 μg/mL of the enzyme (collagenase derived from Clostridium histolyticum) and 50 mM Tricine buffer (pH 7.5), was added to a 96-well microtiter plate. […] After a 10 minute incubation at 37° C., the substrate solution ((7-methoxycoumarin-4-yl)acetyl-L-prolyl-L-leucylglycyl-L-leucyl-[Nβ-(2,4-dinitrophenyl)-L-2,3-diaminopropionyl]-Lalanyl-L-arginine amide) was added to obtain a final concentration of 10 μM, and was allowed to react. The fluorescence values were measured after 0 minutes and 30 minutes incubation at 37° C., at an excitation of 320 nm and an emission of 405 nm, using a fluorescence plate reader (EnSpire, Perkin Elmer, Inc., Japan). EGCG was used as a positive control. The average rates of inhibition can also be appreciated with reference to the Figures.

O=C(O[C@@H]1Cc2c(O)cc(O)cc2O[C@@H]1c1cc(O)c(O)c(O)c1)c1cc(O)c(O)c(O)c1 [EGCG, epigallocatechin gallate]
Average % inhibition (concentration 31.25 μg/ml): 19.10%
Average % inhibition (concentration 62.5 μg/ml): 29.58%
Average % inhibition (concentration 125 μg/ml): 39.38%
Average % inhibition (concentration 250 μg/ml): 54.90%
Average % inhibition (concentration 500 μg/ml): 80.36%
Average % inhibition (concentration 1000 μg/ml): 106.38%
Inhibition Rate of collagenase (%) (concentration 31.25 μg/ml): 18.13% and 16.96% and 22.22%
Inhibition Rate of collagenase (%) (concentration 62.5 μg/ml): 31.14% and 27.49% and 30.12%
Inhibition Rate of collagenase (%) (concentration 125 μg/ml): 41.37% and 35.23% and 41.52%
Inhibition Rate of collagenase (%) (concentration 250 μg/ml): 52.78% and 57.02%
Inhibition Rate of collagenase (%) (concentration 500 μg/ml): 79.53% and 80.99% and 80.56%
Inhibition Rate of collagenase (%) (concentration 1000 μg/ml): 107.75% and 106.58% and 104.82%
